# According to US20150289512A1, “METHOD FOR PROMOTING PLANT GROWTH” (SUMITOMO CHEMICAL COMPANY, LIMITED, priority 2012, published 2015):
# How the values were obtained:
# [1] = tested on: Rice (variety: Nipponbare); assay: Test Example 1: promotion of root growth by hydroponics of rice, 10 ppm; format: in vivo; conditions: Oryza sativa, hydroponic solution containing the test compound at 10 ppm, average of 4 or 5 individuals, read-out: Relative value of length of seminal root (%-untreated control plot)
# Method in brief: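 Surface-sterilised seeds germinated 3 days in the dark at 28° C in hydroponic solution with compound at 10 ppm, then grown 3 days hydroponically with compound at 10 ppm (26° C, 4,000 lux, 16 h day, 50% humidity). Seminal root length measured by image analysis, averaged over 4 or 5 plants per plot.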
# [2] = tested on: Rice (variety: Nipponbare); assay: Test Example 2: promotion of root growth by hydroponics of rice, 1 ppm; format: in vivo; conditions: Oryza sativa, hydroponic solution containing the test compound at 1 ppm, average of 4 or 5 individuals, read-out: Relative value of length of seminal root (%-untreated control plot)
# Method in brief: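 Surface-sterilized Nipponbare seeds germinated 3 days in dark at 28° C in ¼ Hoagland solution with compound at 1 ppm (DMSO 1/10,000; DMSO-only control), then grown hydroponically 3 days at 26° C, 4,000 lux, 16 h day. Seminal root length averaged over 4–5 plants.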
Compound,change in vivo at 10 ppm [1] [%],change in vivo at 1 ppm [2] [%]
COC(=O)c1oc2ccccc2c1NC(=O)C(F)(F)F [Compound 39],> 5,–
COC(=O)c1cc2ccccc2o1 [Compound 1],–,> 5
O=C(O)c1oc2ccccc2c1C(F)(F)F [Compound 82],> 5,> 5
O=C(Nc1ccccc1)c1oc2ccc(C(F)(F)F)cc2c1C(F)(F)F [Compound 76],> 5,> 5
COC(=O)c1oc2ccc(C(F)(F)F)cc2c1C [Compound 33],> 5,> 5
COC(=O)c1oc2ccccc2c1NC(C)=O [Compound 40],> 5,> 5
CCOC(=O)c1cc2c(C(F)(F)F)cccc2o1 [Compound 44],> 5,> 5
Cc1c(C(=O)O)oc2ccccc12 [Compound 36],> 5,> 5
CCOC(=O)c1oc2cccc(O)c2c1C [Compound 80],> 5,> 5
NC(=O)c1oc2ccc(C(F)(F)F)cc2c1C(F)(F)F [Compound 74],> 5,> 5
O=C(Oc1ccccc1)c1cc2cc(C(F)(F)F)ccc2o1 [Compound 55],> 5,> 5
COC(=O)c1oc2ccc(C(F)(F)F)cc2c1N(C)C [Compound 62],> 5,> 5
COC(=O)c1oc2ccc(C(F)(F)F)cc2c1NC(=O)C(F)(F)F [Compound 65],–,> 5
COC(=O)c1oc2ccc(C(F)(F)F)cc2c1NS(=O)(=O)c1ccccc1 [Compound 68],> 5,> 5
COC(=O)c1oc2ccccc2c1C(F)(F)F [Compound 83],–,> 5
COC(=O)c1oc2ccc(C(F)(F)F)cc2c1O [Compound 50],> 5,> 5
Cc1c(C(=O)O)oc2ccc(C(F)(F)F)cc12 [Compound 34],–,> 5
O=C(Nc1ccccc1)c1cc2cc(C(F)(F)F)ccc2o1 [Compound 53],> 5,> 5
O=C(O)c1nc2c(F)cc(F)cc2s1 [Compound 86],> 5,> 5

Compound,change in vivo at 10 ppm [1] [%],change in vivo at 1 ppm [2] [%]
O=C(OCc1ccccc1)c1cc2cc(C(F)(F)F)ccc2o1 [Compound 56],> 5,> 5
O=C(OCc1ccccc1)c1oc2ccc(C(F)(F)F)cc2c1C(F)(F)F [Compound 73],–,> 5
CNC(=O)c1oc2ccc(C(F)(F)F)cc2c1C(F)(F)F [Compound 75],> 5,> 5
COC(=O)c1oc2ccc(C(F)(F)F)cc2c1NS(C)(=O)=O [Compound 67],> 5,> 5
CCOC(=O)c1oc2ccc(C(F)(F)F)cc2c1C(F)(F)F [Compound 71],> 5,–
O=C(O)c1oc2ccc(C(F)(F)F)cc2c1C(F)(F)F [Compound 69],> 5,> 5
"COC(=O)c1nc2cc(C(F)(F)F)ccc2o1 [Compound 17, methyl 5-trifluoromethylbenzoxazole-2-carboxylate]",–,> 5
COC(=O)c1oc2ccccc2c1C [Compound 37],> 5,> 5
"COC(=O)c1cc2cc(C(F)(F)F)ccc2o1 [Compound 3, methyl 5-(trifluoromethyl)benzofuran-2-carboxylate]",–,> 5
NC(=O)c1oc2ccccc2c1C(F)(F)F [Compound 85],> 5,> 5
O=C(O)c1cc2c(C(F)(F)F)cccc2o1 [Compound 43],> 5,> 5
COC(=O)c1cc2c(C(F)(F)F)cccc2o1 [Compound 45],–,> 5
O=C(NCc1ccccc1)c1oc2ccc(C(F)(F)F)cc2c1C(F)(F)F [Compound 77],–,> 5
COC(=O)c1oc2ccc(C(F)(F)F)cc2c1NC(C)=O [Compound 63],> 5,> 5
O=C(NCc1ccccc1)c1cc2cc(C(F)(F)F)ccc2o1 [Compound 54],> 5,> 5
COC(=O)c1oc2ccccc2c1N(C(C)=O)C(C)=O [Compound 41],–,> 5
COC(=O)c1oc2ccc(C(F)(F)F)cc2c1C(F)(F)F [Compound 70],–,> 5
NC(=O)c1cc2cc(C(F)(F)F)ccc2o1 [Compound 51],> 5,> 5
CNC(=O)c1cc2cc(C(F)(F)F)ccc2o1 [Compound 52],> 5,> 5
